Results as given in PubChem BioAssay (NCI).
Where “and” joins values, the source holds several entries; their conditions need not be identical. Identical values can stand only once.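 In this assay, cells in 96-well plates receive the compound at five concentrations for 48 hours. Endpoints are linearly interpolated between the surrounding concentrations. Abbreviation: GI50, concentration required for 50% inhibition of growth. TGI: concentration producing complete growth inhibition.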

Tests used:
Assay in all cases: NCI anticancer screen, dose series, 48 h
[1] = test system: HL-60(TB) leukemia
[2] = test system: IGROV1 ovarian
[3] = test system: K-562 leukemia
[4] = test system: MCF7 breast
[5] = test system: NCI-H23 lung
[6] = test system: OVCAR-5 ovarian
[7] = test system: RPMI-8226 leukemia
[8] = test system: SF-268 CNS
[9] = test system: TK-10 renal
[10] = test system: UO-31 renal

Row | Structure (SMILES) | GI50 [1] [µM] | TGI [1] [µM] | GI50 [2] [µM] | TGI [2] [µM] | GI50 [3] [µM] | TGI [3] | GI50 [4] [µM] | TGI [4] [µM] | GI50 [5] [µM] | TGI [5] | GI50 [6] [µM] | TGI [6] | GI50 [7] [µM] | TGI [7] | GI50 [8] [µM] | TGI [8] | GI50 [9] [µM] | TGI [9] | GI50 [10] [µM] | TGI [10]
1 | CC(=O)c1ccc2c(c1)N(CCCN1CCN(CCO)CC1)c1ccccc1S2 | 2.12 | 4.83 | 2.16 | 6.12 | 2.52 | > 23 µM | 1.78 | 3.52 | 5.68 | 18.9 µM | 2.29 | 9.78 µM | 2.4 | 8.75 µM | 3.15 | 12.2 µM | 1.69 | 3.6 µM | 1.79 | 5.46 µM
2 | CCCCCCNCCCNc1c2cc(OC)ccc2nc2cccc([N+](=O)[O-])c12 | 0.155 | – | 0.223 | – | 0.121 | 0.489 µM and 0.352 µM | 0.0348 | 0.398 | 0.165 | 0.296 µM and 0.351 µM | 0.19 | 0.383 µM and 0.794 µM | 0.0646 | 0.14 µM and 0.348 µM | 0.261 | 0.418 µM and 1.01 µM | 0.322 | 0.387 µM and 0.875 µM | 0.187 | 0.703 µM and 0.431 µM
3 | COc1cccc(CNc2ncnc3c2ncn3C2OC(CO)C(O)C2O)c1O (configuration not stated) | 0.0303 | 0.224 | 0.206 | – | 0.311 | > 100 µM | 0.369 | > 100 | 0.282 | > 100 µM | 0.417 | > 100 µM | 0.319 | > 100 µM | 0.257 | > 100 µM | 0.058 | 1.38 µM | 0.123 | > 28.6 µM
4 | CC(/C=C/C(O)=C1/C(=O)CNC1=O)=C\[C@@H](C)[C@H]1O[C@@]2(C)O[C@H](C(=O)[C@@H]3O[C@@]32C)[C@@H]1C | – | 80.6 | – | 44.9 | – | > 100 µM | – | 39.8 | – | 59 µM | – | 57.5 µM | – | 35.9 µM | – | 43.9 µM | – | 44.2 µM | – | 33.2 µM
5 | Cn1cc(-c2cc(-c3cn(C)c4ccc(Cl)cc34)[nH]n2)c2cc(Cl)ccc21 | 4.45 | 18.1 | 2.55 | 6.37 | 2.78 | 5.98 µM | 2.64 | 6.89 | 2.48 | 7.69 µM | 3.11 | 13 µM | 6.79 | > 100 µM | 5.29 | 44.4 µM | 5.16 | 23.7 µM | 3.01 | 14.8 µM
6 | Nc1nc(N)c2cc(Sc3ccc4ccccc4c3)ccc2n1 | – | 2.77 | 0.817 | 14.1 | – | 1.88 µM | – | 2.86 | – | 10.2 µM | – | 10.4 µM | – | 4.72 µM | – | 4.19 µM | – | 6.33 µM | – | 7.69 µM
7 | Cc1cc(CCl)c(C)cc1CCl | 2.98 | 13.2 | 1.47 | 6.25 | 1.06 | > 33.2 µM | 0.281 | 2.32 | 3.77 | 18.5 µM | 2.94 | 8.62 µM | 1.63 | 6.9 µM | 1.02 | 6.08 µM | 1.97 | 5.05 µM | 1.53 | 3.71 µM
8 | C=C(CN1CCc2c([nH]c3ccccc23)C1)c1ccc(C(=O)Nc2ccccc2N)cc1 | 0.67 | 7.25 | 1.08 | 18.9 | 1.01 | 17 µM | 3.98 | 22.9 | 3.73 | 19.9 µM | 7.15 | 31.6 µM | 0.356 | 3.57 µM | 2.89 | 10.8 µM | 2.6 | 9.58 µM | 3.53 | 9.89 µM
9 | FC(F)(F)c1ccc(-c2nn3ncccc3c2-c2ccnc(Nc3ccc4c(c3)OCCO4)n2)cc1 | 7.16 | > 21.8 | 5.19 | > 25 | 8.79 | > 25 µM | 8.04 | > 25 | 14.7 | > 25 µM | 7.11 | > 23.2 µM | 5.97 | > 20.4 µM | > 21.3 | > 25 µM | 10.1 | > 25 µM | 3 | > 21.9 µM
10 | COc1cc(F)ccc1-c1cc(Nc2cc(CS(C)(=N)=O)ccn2)ncc1F (configuration not stated) | 0.0284 | 0.228 | 0.0571 | > 100 | 0.264 | > 100 µM | 0.0391 | > 100 | 0.0982 | 1.24 µM | 0.0488 | > 100 µM | 0.11 | 0.662 µM | 0.0689 | > 100 µM | 0.151 | > 100 µM | 0.0337 | > 100 µM
11 | COc1ccc(C2=NC(=O)NC2c2ccc(OC)cc2)cc1 (configuration not stated) | 2.2 | 15.6 | 23.2 | > 100 | 2.8 | 20.8 µM | 4.34 | > 100 | 12.9 | 78.3 µM | 25.9 | > 100 µM | 7.58 | 50.6 µM | 16.5 | > 100 µM | 4.43 | 35.9 µM | 20.7 | > 100 µM
12 | CCOC(=O)c1sc(-c2ccc(OS(=O)(=O)C[C@]34CCC(CC3=O)C4(C)C)c(C=O)c2)nc1C | 1.27 | 3.29 | 1.07 | 2.85 | 0.753 | > 13.5 µM | 0.858 | 2.47 | 1.04 | 2.64 µM | 0.97 | 2.68 µM | 0.822 | 3.19 µM | 0.954 | 2.47 µM | 0.721 | 4.48 µM | 1.05 | 4.65 µM
13 | CSc1ncnc2c1ncn2CC(=O)C1CCC2C3CCC4=CC(=O)CCC4(C)C3CCC12C (configuration not stated) | – | 0.926 | – | > 100 | – | > 71.8 µM | – | 14.9 | – | 35.2 µM | – | > 100 µM | – | 5.21 µM | – | > 100 µM | – | 30.1 µM | – | 2.52 µM
14 | CCCC(=O)N[C@H]1CCc2cc(OC)c(OC)c(OC)c2-c2ccc(SC)c(=O)cc21 | – | < 0.01 | – | > 100 | – | > 100 µM | – | > 100 | – | 2.18 µM | – | > 100 µM | – | > 100 µM | – | 62.7 µM | – | 99.9 µM | – | > 100 µM
15 | C/C(=C(/c1ccccc1)c1ccc(OCC(O)CNCCN2CCOCC2)cc1)c1ccccc1 (configuration not stated) | 1.95 | 4.04 | 3.97 | 15 | 1.75 | 4.26 µM | 3.61 | 10.2 | 3.87 | 14.5 µM | 6.48 | 20.5 µM | – | – | 4 | 15.4 µM | 2.69 | 7.93 µM | 1.37 | 2.77 µM
16 | CN(Cc1ccc(F)cc1)c1ccc(CO)c(Cl)c1 | 12.5 | 54 | 0.476 | 3.47 | 7.99 | > 100 µM | 1.23 | 21.5 | 11.6 | > 72.7 µM | 0.426 | 2.37 µM | 12.4 | 60.6 µM | 37.8 | > 100 µM | 0.203 | 0.825 µM | 7.53 | > 65.1 µM
17 | COc1ccc(-c2c(C#N)c(N)nc(N3CCOCC3)c2C#N)cc1 | 20.2 | 63.5 | 3.08 | 21 | 34.5 | > 100 µM | 21.6 | 98.9 | – | – | 13.9 | 59.9 µM | 16.1 | 58.7 µM | 32.3 | > 100 µM | 19.6 | 86.1 µM | 13.1 | 49.2 µM
18 | Nc1c(C(=O)c2cccc(C#CCN3CCCCC3)c2)cnn1-c1ccc(F)cc1 | 15.9 | > 25 | > 25 | > 25 | 13.1 | > 25 µM | 19.1 | > 25 | > 22.5 | > 25 µM | > 25 | > 25 µM | > 17 | > 25 µM | > 25 | > 25 µM | > 25 | > 25 µM | 16.2 | > 25 µM
19 | CCCCCCCCCc1ccc(OCCOCCOCCOCCOCCOCCOCCOCCOCCO)cc1 | 0.31 | 1.37 | 0.999 | 4.32 | 0.332 | 7.27 µM | 0.328 | 1.96 | 0.257 | 3.26 µM | 1.1 | 3.54 µM | 0.0368 | 1.76 µM | 0.685 | 3.37 µM | 0.745 | 1.93 µM | 0.733 | 4.82 µM
20 | O=C(CC1(O)C(=O)Nc2ccc(F)cc21)c1ccc(C(=O)NCC2CCC3(CC2)OOC2(CCCCC2)OO3)cc1 (configuration not stated) | 1.43 | 3.46 | 1.64 | 6.63 | 3.49 | 21.9 µM | 8.23 | 29 | 3.62 | 19.9 µM | 15.7 | 36.5 µM | 2.57 | 8.55 µM | 10.8 | 30.8 µM | 2.03 | 4.36 µM | 0.858 | 2.28 µM
21 | O=[N+]([O-])c1cc([As](Br)c2ccc(O)c([N+](=O)[O-])c2)ccc1O | – | 4.63 | – | 3.6 | – | > 23.2 µM | – | > 20.8 | – | 4.37 µM | – | 4.2 µM | – | 1.28 µM | – | 5.59 µM | – | 3.14 µM | – | 3.23 µM
22 | Cn1c(=O)n(C)c2cc(CNCCNc3ccnc4cc(Cl)ccc34)ccc21 | 25.1 | 91.2 | 37.4 | > 100 | 6.99 | 39.4 µM | 28.6 | > 100 | 48.8 | > 100 µM | 20.3 | 65.4 µM | 20.9 | 65.6 µM | 29.4 | > 100 µM | 40.2 | > 100 µM | 23.3 | > 100 µM
23 | ClCc1cccc(Cn2cnc3c(Cl)nc(Cl)nc32)c1 | 0.642 | > 100 | 2.27 | 5.18 | 1.6 | > 100 µM | 2.04 | 6.4 | 2.14 | 5.09 µM | 6.52 | 20.2 µM | 3.29 | > 100 µM | 2.5 | 6.64 µM | 1.74 | 3.95 µM | 1.58 | 3.06 µM
24 | CCSc1ccc([C@@H]2[C@@H](O)C(=O)N2c2cc(OC)c(OC)c(OC)c2)cc1 | < 0.0134 | 0.0367 | 0.0235 | 66.2 | < 0.01 | > 69.9 µM | < 0.01 | 15.7 | 0.0456 | 61 µM | 0.0526 | > 100 µM | 0.0279 | 12 µM | 0.0504 | 51.7 µM | 17.7 | 84.1 µM | 0.21 | 34.2 µM
25 | COc1ccc2c(c1)CN([C@@H](C)[C@H]1CC[C@H]3[C@@H]4CC[C@H]5C[C@@H](O)CC[C@]5(C)[C@H]4CC[C@]13C)CO2 | – | 5.91 | – | 14.6 | – | 2.37 µM | – | 11.8 | – | 5.12 µM | – | 13.5 µM | – | 1.97 µM | – | 7.38 µM | – | 8.32 µM | – | 3.39 µM
26 | CCCc1nc(Cl)nc(Cl)c1Cl | – | 0.359 | – | 2.14 | – | 0.118 µM | – | 1.52 | – | 2.04 µM | – | 1.74 µM | – | – | – | 4.17 µM | – | 4.71 µM | – | 0.111 µM
27 | COc1cc(OC)c2sc(-c3ccc(-n4cncc4-c4ccc(OC)c(OC)c4)cc3)nc2c1 | 3.09 | > 100 | 56.1 | > 100 | 5.88 | > 100 µM | 5.37 | > 100 | > 100 | > 100 µM | > 100 | > 100 µM | > 100 | > 100 µM | 9.96 | > 100 µM | 31.7 | > 100 µM | – | –
28 | CC(C)(C)NCC(O)COc1c(Br)c(Br)c(Br)c2c1OC(C)(C)C2 (configuration not stated) | 1.53 | 3.1 | 1.77 | 3.36 | 1.54 | 2.94 µM | 1.76 | 3.24 | – | – | – | – | 1.45 | 3.09 µM | 1.73 | 3.38 µM | 2.04 | 3.52 µM | 1.76 | 3.23 µM
